Assay results reported in PMC6982951, “The N’-Substituted Derivatives of 5-Chloro-3-Methylisothiazole-4-Carboxylic Acid Hydrazide with Antiproliferative Activity” (Molecules, 2019).
Values joined by “and” are separate entries in the source; they are usually repeats but may differ in a detail not shown here. Identical values can stand only once. “Also recorded” adds a separate entry of the source. Like-named read-outs stand apart in the source and are kept apart here.

Experiments:
[1] = tested on: MV4-11 (human biphenotypic B cell myelomonocytic leukemia); assay: MTT antiproliferative assay, 72 h exposure; type: cell-based; details: for IC50 / IC50 ± SD: MV4-11, MTT, 72 h, n.a. = no activity in a concentration of 1–80 μg/mL; for antiproliferative activity (in words): MV4-11 leukemia cells; for inhibition at 80 µg/mL: MV4-11, compound concentration 80 μg/mL, read-out: inhibition of cell proliferation
Description: (§1) Established in vitro, human cell lines MV4-11 (human biphenotypic B myelomonocytic leukemia), MCF-7 (breast cancer), LoVo (colon cancer), LoVo/DX (colon cancer drug resistant), and MCF-10A (normal breast epithelial) were used. The lines were obtained from the American Type Culture Collection (lines MV4-11, LoVo, LoVo/DX, MCF-10A; Rockville, MD, USA) or from the European Collection of Authenticated Cell Cultures (line MCF-7) and are being maintained at the Hirszfeld Institute of Immunology and Experimental Therapy PAS, Wroclaw, Poland.
(§2) MV4-11 cells were cultured in the RPMI 1640 medium (HIIET PAS, Poland) supplemented with 1.0 mM sodium pyruvate, 2 mM L-glutamine and 10% FBS (all from Sigma Aldrich, Steinheim, Germany), LoVo cells were cultured in the F-12K medium (Life Technologies, Carlsbad, CA, United States) supplemented with 10% FBS (GE Healthcare, Chicago, IL, USA), and LoVo/DX cells were cultured in the mixture of RPMI 1640+OptiMEM (1:1) medium (HIIET PAS) supplemented with 5% FBS (GE Healthcare, Chicago, IL, USA), 2 mM L-glutamine, 1.0 mM sodium pyruvate (all from Sigma Aldrich, Steinheim, Germany) and 0.1 µg/mL doxorubicin chloride (Accord).
(§3) Test solutions of the compounds tested (50 mM) were prepared by dissolving the substances in DMSO (Sigma Aldrich). Afterwards, the tested compounds were diluted in a culture medium to reach the final concentrations at the range of 1-80 μg/mL (250, 125, 25 and 5 μM).
(§4) Twenty-four hours prior to the addition of the tested compounds, the cells were plated in 96-well plates (Sarstedt, Germany) at a density of 1 × 10^4 or 0.75 × 10^4 (MCF-7) cells per well. The assay was performed after 72 h of exposure to varying concentrations of the tested agents. The in vitro cytotoxic effect of all agents was examined using the MTT (MV4-11) or SRB assay. The results were calculated as IC50 (inhibitory concentration 50%) the concentration of tested agent, which is cytotoxic for 50% of the cancer cells. Each compound in each concentration was tested in triplicate in a single experiment, which was repeated 3–4 times.
This technique was applied for cells growing in suspension culture. An assay was performed after 72 h exposure to varying concentrations of the tested agents. For the last 4 h of incubation, 20 µL of MTT solution was added to each well (MTT: 3-(4,5-dimethylthiazol-2-yl)-2,5-diphenyl tetrazolium bromide; stock solution: 5 mg/mL, Sigma Aldrich). When the incubation time was completed, 80 µL of the lysing mixture was added to each well (lysing mixture: 225 mL dimethylformamide, POCh, Gliwice, Poland, 67.5 g sodium dodecyl sulfate, Sigma Aldrich, and 275 mL of distilled water). After 24 h, when formazan crystals had been dissolved, the optical densities of the samples were read on Synergy H4 photometer (BioTek Instruments, USA) at 570 nm wavelength. The background optical density was measured in the wells filled with culture medium, without the cells.

[2] = tested on: MCF-7 (breast adenocarcinoma); assay: SRB antiproliferative assay, 72 h exposure; type: cell-based, human; details: MCF-7, SRB; for IC50: read-out: IC50 ± SD MCF-7
Description: as §1
(§5) MCF-7 cells were cultured in the Eagle’s medium (HIIET PAS, Poland) supplemented with 10% FBS, 8 µg/mL insulin, 2 mM L-glutamine and 1% MEM-non essential amino acid solution 100X (all from Sigma Aldrich, Steinheim, Germany). MCF-10A cells were cultured in the HAM’S F-12 with L-glutamine medium (Corning) supplemented with 10% Hors Serum (Gibco), 10 µg/mL insulin, 0.5 µg/mL hydrocortisone, 20 ng/mL EGFh and 0.05 mg/mL Cholera Toxin from Vibrio cholerae (all from Sigma Aldrich, Steinheim, Germany). All culture mediums were supplemented with 100 units/mL penicillin (Polfa Tarchomin S.A. Poland), and 100 µg/mL streptomycin (Sigma Aldrich). All cell lines were grown at 37 °C with 5% CO2 humidified atmosphere.
as §3, §4
(§6) This technique was applied for the cytotoxicity screening against cells growing in adherent culture. The details of this technique were described by Skehan et. al.. The cytotoxicity assay was performed after 72 h exposure of the cultured cells to varying concentrations of the tested agents. The cells attached to the plastic were fixed by gently layering cold 50% TCA (trichloroacetic acid, Sigma Aldrich) on the top of the culture medium in each well. The plates were incubated at 4 °C for 1 h and then washed five times with tap water. The cellular material fixed with TCA was stained with 0.1% sulforhodamine B (SRB, Sigma Aldrich) dissolved in 1% acetic acid (POCh) for 30 min. Unbound dye was removed by rinsing (4×) with 1% acetic acid. The protein-bound dye was extracted with 10 mM unbuffered Tris base (Sigma Aldrich) for determination of optical density (at 540 nm) on Synergy H4 photometer (BioTek Instruments). The background optical density was measured in the wells filled with culture medium, without the cells.

[3] = tested on: MCF-10A (normal non-tumorigenic epithelial cell line derived from mammary gland); assay: SRB cytotoxicity assay, 72 h exposure; type: cell-based, human; details: for IC50: read-out: IC50 ± SD MCF-10A; for cytotoxicity against normal MCF-10A cells relative to cancer MCF-7 cells: MCF-10A versus MCF-7
Description: as §1, §5, §3, §4, §6

[4] = tested on: LoVo (human colon adenocarcinoma, sensitive); assay: SRB antiproliferative assay, 72 h exposure; type: cell-based; details: for IC50: read-out: IC50 ± SD LoVo
Description: as §1, §2, §3, §4, §6

[5] = tested on: LoVo/DX (human colon adenocarcinoma, resistant to doxorubicin); assay: SRB antiproliferative assay, 72 h exposure; resistance index; type: cell-based; details: for RI (resistance index): IC50 against LoVo/DX divided by IC50 against LoVo; for IC50 ± SD LoVoDX / IC50: LoVo/DX, SRB, 72 h; for IC50: read-out: IC50 ± SD LoVoDX
Description: as §1, §2, §3, §4
The resistance indexes (RI) were calculated by dividing the IC50 values of the compounds tested against the cells of drug resistant cell LoVo/DX line by respective values obtained against the cells of drug sensitive LoVo line (Table 2). According to Harker et al., three categories of the cells could be distinguished: (a) the cells are drug-sensitive if the ratio approaches 0–2; (b) the cells are moderately drug-resistant if the ratio ranges from 2 to 10; (c) the cells are markedly drug-resistant if the ratio is higher than 10.
as §6

[6] = MCF-10A normal cells, SRB, 72 h
[7] = Homo sapiens, MCF-10A normal cells, SRB, 72 h

| SMILES | RI (resistance index) [5] | antiproliferative activity (in words) [1] | IC50 ([1]; Homo sapiens, MV4-11, 72 h) | IC50 ([2]; Homo sapiens, MCF7, 72 h) | IC50 [3, 7] | IC50 ([4]; Homo sapiens) | IC50 ([5]; Homo sapiens) | melting point [°C] | other results |
| --- | --- | --- | --- | --- | --- | --- | --- | --- | --- |
| N.N.[Cl][Pt][Cl] [Cisplatin, reference compound] | 0.49 | – | – | – | – | – | – | – | IC50 [1]: 1.28 ± 0.45 µM; IC50 ± SD [1]: 0.38 ± 0.14 µg/mL; IC50 ± SD MCF-7 [2]: 1.56 ± 0.3 µg/mL; IC50 [2]: 5.2 ± 1 µM; IC50 ± SD MCF-10A [3, 6]: 2.9 ± 0.4 µg/mL; IC50 [3, 6]: 9.7 ± 1.4 µM; IC50 ± SD LoVo [4]: 1.7 ± 0.8 µg/mL; IC50 [4]: 5.6 ± 2.6 µM; IC50 ± SD LoVoDX [5]: 0.84 ± 0.17 µg/mL; IC50 [5]: 2.8 ± 0.6 µM |
| Cc1nsc(Cl)c1C(=O)O [Compound 1, 5-Chloro-3-methylisothiazole-4-carboxylic acid] | – | no antiproliferative activity; also recorded: devoid of any anticancer activity | – | – | – | – | – | – | – |
| Cc1nsc(Cl)c1C(=O)NN [Compound 2, 5-Chloro-3-Methylisothiazole-4-Carbohydrazide] | – | very poor activity; also recorded: devoid of any anticancer activity | > 80 µg/mL | – | – | – | – | – | inhibition at 80 µg/mL ([1]; Homo sapiens): 45% |
| Cc1nsc(Cl)c1C(=O)N/N=C/C=C/c1ccccc1 [Compound 3, 5-Chloro-N’-[(1E,2E)-3-phenylprop-2-en-1-ylidene]-3-methylisothiazole-4-carbohydrazide] | 1.37 | – | 4.4 µg/mL and 14 µM | 39.3 ± 6.3 µM | 20.9 µg/mL and 68.6 µM | 25 ± 5.5 µM | 34.2 ± 2.3 µM | 180 to 181 | IC50 ± SD [1]: 4.3 ± 1.9 µg/mL; IC50 ± SD MCF-7 [2]: 12 ± 1.9 µg/mL; activity (IC50 value) towards MCF-10A normal cell line relative to cancer cells ([3]; MCF-10A versus cancer cells): almost two times lower activity; IC50 ± SD LoVo [4]: 7.64 ± 1.7 µg/mL; IC50 ± SD LoVoDX [5]: 10.4 ± 0.7 µg/mL |
| Cc1nsc(Cl)c1C(=O)N/N=C/c1cccc(Cl)c1 [Compound 4, 5-Chloro-N’-[(E)-(3-chlorophenyl)methylidene]-3-methylisothiazole-4-carbohydrazide] | 0.81 | – | 15.2 µg/mL and 48.4 µM | 48.6 ± 5.7 µM | 24.6 µg/mL and 78.5 µM | 59.4 ± 3.4 µM | 47.9 ± 3.7 µM | 174 to 175 | IC50 ± SD MCF-7 [2]: 15.2 ± 1.8 µg/mL; IC50 ± SD LoVo [4]: 18.6 ± 1.1 µg/mL; IC50 ± SD LoVoDX [5]: 15 ± 1.1 µg/mL |
| Cc1nsc(Cl)c1C(=O)N/N=C/c1cccc([N+](=O)[O-])c1 [Compound 5, 5-Chloro-N’-[(E)-(3-nitrophenyl)methylidene]-3-methylisothiazole-4-carbohydrazide] | 1.29 | – | 18.7 µg/mL and 57.7 µM | 20.1 µg/mL and 65.1 µM | 60.8 µg/mL and 197 µM | 22.7 µg/mL and 73.4 µM | 29.2 µg/mL and 94.6 µM | 199 to 200 | cytotoxicity against normal MCF-10A cells relative to cancer MCF-7 cells [3]: about three times less cytotoxic |
| CCc1ccc(/C=N/NC(=O)c2c(C)nsc2Cl)cc1 [Compound 6, 5-Chloro-N’-[(E)-(4-ethylphenyl)methylidene]-3-methylisothiazole-4-carbohydrazide] | 0.91 | – | 21.3 µg/mL and 69.4 µM | 13.9 µg/mL and 42.9 µM | 40.6 µg/mL and 125 µM | 31.7 µg/mL and 97.7 µM | 28.8 µg/mL and 88.8 µM | 152 to 154 | – |
| Cc1nsc(Cl)c1C(=O)N/N=C/c1ccccc1 [Compound 8, 5-Chloro-N’-[(E)-phenylmethylidene]-3-methylisothiazole-4-carbohydrazide] | – | – | 36.6 µg/mL and 131 µM | – | – | – | – | 164 to 165 | cytotoxicity against normal MCF-10A cells relative to cancer MCF-7 cells [3]: about three times less cytotoxic |
| Cc1ccc(/C=N/NC(=O)c2c(C)nsc2Cl)c(C)c1 [Compound 9, 5-Chloro-N’-[(E)-(2,4-dimethylphenyl)methylidene]-3-methylisothiazole-4-carbohydrazide] | – | very poor activity | > 80 µg/mL | – | – | – | – | 232 to 234 | inhibition at 80 µg/mL ([1]; Homo sapiens): 42.5%; cytotoxicity against normal MCF-10A cells relative to cancer MCF-7 cells [3]: about three times less cytotoxic |
| Cc1ccccc1/C=N/NC(=O)c1c(C)nsc1Cl [Compound 10, 5-Chloro-N’-[(E)-(2-methylphenyl)methylidene]-3-methylisothiazole-4-carbohydrazide] | – | very poor activity | > 80 µg/mL | – | – | – | – | 226 to 228 | inhibition at 80 µg/mL ([1]; Homo sapiens): 47% |
| Cc1nsc(Cl)c1C(=O)N/N=C/c1ccccc1Cl [Compound 11, 5-Chloro-N’-[(E)-(2-chlorophenyl)methylidene]-3-methylisothiazole-4-carbohydrazide] | – | no antiproliferative activity | – | – | – | – | – | 232 to 233 | – |
